{"source": "patent US6525089B1", "about": "“Pharmaceutical composition containing decursin” (Binex Co., Ltd., priority 1998, dated 2003)", "key": {"[1]": {"test_system": "cell lines of uterine cancer, leukemia, hepatoma or large intestine cancer", "details": "cited from earlier work"}, "U-937 cells [2]": {"test_system": "U-937 cells", "assay": "Esterase activity test: naphthol AS-D chloroacetate esterase", "format": "cell-based, human", "details": "percentage of cells showing activity", "protocol": "To determine naphthol AS-D chloroacetate esterase activity, the cultured solution of U-937 cells was pelleted by centrifugation at 2000 rpm for 5 minutes, followed by the addition of 100 μl PBS to prepare a cell-concentrated solution. A drop of the cell solution was put on a slide glass and dried for more than 1 hour. Then 40 ml of deionized water was preheated at 37° C. 1 ml of […] solution was mixed with 1 ml of Fast Red Violet LB base solution and left for 2 minutes. The mixture was added to 40 ml of preheated deionized water. After the addition of 5 ml of TRIZMAL TM 6.3) buffer solution (Sigma Co. T-3128) and 1 ml of naphthol AS-D chloroacetate solution, the resulting solution, which was turned to red color was poured on a petri dish. The cells on a slide glass were fixed with citrate-acetone-formaldehyde solution, (CAF solution) at room temperature. The cells were soaked in the previously prepared solution and incubated at 37° C. for 30 minutes at a dark place. The cells were completely washed with deionized water for more than 2 minutes and counterstained with hematoxylin solution for 2 minutes, washed with tap water and dried in the air. After completely dried, the cells were observed under a microscope to calculate the reddish cell numbers by percentage.\nThus it was considered that the cells were differentiated into macrophage.like cells by the action of decursin."}, "U-937 cells [3]": {"test_system": "U-937 cells", "assay": "NBT reduction test", "format": "cell-based, human", "details": "1 × 10^−7M, incubated 4 days", "protocol": "(§1) U-937 cells were plated on a cell culture dish at a concentration of 2×10^5 cells/ml in a medium containing 10^−7M decursin and incubated in a 5% CO2 incubator at 37° C.\nIn the nitrobluetetrazolium (NBT) reduction test, cell solution (about 1×10^6 cells/ml) was well stirred and pelleted by centrifugation at 2000 rpm for 5 minutes. The pellets were suspended in 0.5 ml of medium, followed by the addition of a mixing solution (0.5 ml) containing 10^−6M formyl-methionine leucine phenylalanine (fMLP) and NBT 1.0 mg/DPBSml (1:9). The mixture was incubated at 37° C. for 30 minutes. The reaction was stopped in ice bath and centrifuged at 2000 rpm for 5 minutes. The supernatant was removed and then 200 μl of DPBS was added. The solution was lightly swayed and checked under a microscope to observe a minimum number of 200 cells. The number of NBT (+) cells was calculated by percentage.\nThe differentiation was investigated by using the fact that the differentiated leukocyte cells may generate superoxide anion by stimulation. […] The cultured mixture, which was reacted with superoxide, was reduced to form a precipitate. Then NBT was added to the precipitate (Table 7)."}, "U-937 cells [4]": {"test_system": "U-937 cells", "assay": "Phagocytosis test", "format": "cell-based, human", "details": "1 × 10^−7M, incubated 4 days", "protocol": "as §1\nIn the phagocytosis test, 10^6 cells were well stirred and pelleted by centrifugation at 2000 rpm for 5 minutes. 1 ml of 0.2% serum free medium solution in polystyrene particle were added to the pellets, swayed and incubated at 37° C. for 4 hours. After being washed with phosphate buffered saline (PBS) three times, cell pellets were harvested and then about 200 μl of DPBS was added. The solution was lightly swayed and checked under a microscope to observe a minimum number of 200 cells. The number of cells containing the particles was calculated by percentage.\nThe results of phagocytosis test designed to assess the functional change according to differentiation of U-937 cells was shown in the following Table 8."}, "ICR mice": {"test_system": "ICR mice", "assay": "Urinary test, alloxan-treated mice", "format": "in vivo", "details": "Alloxan + decursin group (50 mg/kg orally, 10 days)", "protocol": "2 days after ICR mice were given alloxan (75 mg/kg, i.v.), their glucose levels at fasting were measured to select high-glucose mice. The high-glucose mice were divided into two groups; physiological saline solution was given to one group, while decursin was orally administered to the other group at a dose of 50 mg/kg for 10 days. The alloxan-free group was also orally given physiological saline solution for 10 days. The body weighs were checked periodically, together with urinary tests. To isolate their sera and kidney, mice were slightly anesthetized with ether and their abdomens were dissected. The blood samples were collected from heart to isolate the sera. The kidney was perfused with 0.9% NaCl and isolated after removal of the blood. Then the weight of right kidney was measured. Further, to measure the protein amount from the kidney tissues, these tissues were assayed according to the Bradford method using Bio-Rad protein assay kit in the presence of bovine serum albumin as a reference standard. To measure the MDA in the kidney tissues, 0.4 ml of 10% sodium dodecylsulfate was added to 0.5 ml of 10% kidney-tissue homogenization solution and left in water bath at 37° C. for 30 minutes; With the subsequent addition of 0.1N-HCl (2 ml) and 0.67% TBA (1 ml), the mixture was voltexed and left in boiling water bath for 30 minutes. The mixture was further cooled in ice bath for 2˜3 minutes to stop the reaction. Then 2 ml of n-butanol was added to the mixture, stirred well and centrifuged at 3000 rpm for 10 minutes. The supernatant was collected to measure the absorbance at 532 nm. 10 μg/ml tetraethoxypropane (TEP) was employed as a reference standard. To measure the MDA in sera, 0.8% thiobarbituric acid (TBA) was added to 0.5 ml of sera and left in boiling water bath for 30 minutes. The mixture was further cooled in ice bath for 2˜3 minutes to stop the reaction. The supernatant was collected to measure the absorbance at 532 nm. 10 μg/ml TEP was employed as a reference standard."}, "U-937 cells [5]": {"test_system": "U-937 cells", "assay": "Growth inhibition test (trypan blue exclusion)", "format": "cell-based, human", "protocol": "U-937 cells, optioned from Korea Cell Line Bank, was cultured in RPMI 1640 medium (Sigma Co., R-6504) supplemented with 10% fetal bovine serum (FBS). The medium was exchanged every 5 day by 70%. U-937 cells were inoculated into a cell culture dish at concentration of 2×10^5 cells/ml. Then decursin added into the dish at concentration of 10^−8˜10^−6M, then the cells were cultured for 4 days. Trypan blue exclusion test was performed to determine the number of live cells using a hemacytometer, and the percentage of cancer-cell growth inhibition was calculated. Then, the differentiation was induced by treating with 10^−2M diluted ethanol solution containing various amount of decursin in the medium."}}}
{"smiles": "CC(C)=CC(=O)O[C@H]1Cc2cc3ccc(=O)oc3cc2OC1(C)C", "note": "[decursin]", "values": [{"measurement": "concentration at which decursin has toxicity on cancer cell lines", "setting": "[1]", "result": "more than 10 ppm"}, {"measurement": "Naphtol AS-D chloroacetate esterase Activity (%)", "setting": "U-937 cells [2]", "result": 0.0, "unit": "%"}, {"measurement": "NBT reduction test: positive cells", "setting": "U-937 cells [3]", "result": 43, "unit": "%"}, {"measurement": "NBT reduction test: positive cells", "setting": "U-937 cells [3]; listed as Decursin", "result": "43.1 ± 4.0", "unit": "%"}, {"measurement": "Phagocytosis test: cells showing phagocytosis activity", "setting": "U-937 cells [4]", "result": 28.6, "unit": "%"}, {"measurement": "Phagocytosis test: cells showing phagocytosis activity", "setting": "U-937 cells [4]; listed as Decursin", "result": "28.6 ± 1.2", "unit": "%"}, {"measurement": "Urinary test Bilirubin: count in category +", "setting": "ICR mice", "result": 2}, {"measurement": "Urinary test Bilirubin: count in category −", "setting": "ICR mice", "result": 8}, {"measurement": "Urinary test Glucose: count in category +", "setting": "ICR mice", "result": 1}, {"measurement": "Urinary test Glucose: count in category −", "setting": "ICR mice", "result": 9}, {"measurement": "Urinary test Ketone: count in category −", "setting": "ICR mice", "result": 10}, {"measurement": "Urinary test Nitrite: count in category −", "setting": "ICR mice", "result": 10}, {"measurement": "Urinary test Occult blood: count in category +", "setting": "ICR mice", "result": 2}, {"measurement": "Urinary test Occult blood: count in category −", "setting": "ICR mice", "result": 8}, {"measurement": "Urinary test Protein: count in category −", "setting": "ICR mice", "result": 10}, {"measurement": "Urinary test Specific gravity: count in category −", "setting": "ICR mice", "result": 10}, {"measurement": "Urinary test Urobilinogen: count in category +", "setting": "ICR mice", "result": 1}, {"measurement": "Urinary test Urobilinogen: count in category −", "setting": "ICR mice", "result": 9}, {"measurement": "Urinary test pH: count in category −", "setting": "ICR mice", "result": 10}, {"measurement": "Growth inhibition rate (%)", "setting": "U-937 cells [5]; 1 × 10^−7M, 4 days (96 hours)", "result": "42.0 ± 6.4", "unit": "%"}, {"measurement": "inhibition at 1 µM", "setting": "U-937 cells [5]; Homo sapiens, U-937, 96 h, 1 × 10^−6M, 4 days (96 hours), read-out: Growth inhibition rate (%)", "result": "52 ± 2.8", "unit": "%"}, {"measurement": "inhibition at 0.1 µM", "setting": "U-937 cells [5]; Homo sapiens, U-937, 96 h, 1 × 10^−7M, 4 days (96 hours), read-out: Growth inhibition rate (%)", "result": "~33", "unit": "%"}, {"measurement": "inhibition at 0.01 µM", "setting": "U-937 cells [5]; Homo sapiens, U-937, 96 h, 1 × 10^−8M, 4 days (96 hours), read-out: Growth inhibition rate (%)", "result": "31 ± 7.8", "unit": "%"}, {"measurement": "inhibition at 0.5 µM", "setting": "U-937 cells [5]; Homo sapiens, U-937, 96 h, 5 × 10^−7M, 4 days (96 hours), read-out: Growth inhibition rate (%)", "result": "48 ± 7.1", "unit": "%"}, {"measurement": "inhibition at 0.05 µM", "setting": "U-937 cells [5]; Homo sapiens, U-937, 96 h, 5 × 10^−8M, 4 days (96 hours), read-out: Growth inhibition rate (%)", "result": "35.5 ± 7.4", "unit": "%"}, {"measurement": "growth inhibition rate (inhibitory effect)", "setting": "U-937 cells [5]; after 96 hours, concentration of 10^−8˜10^−6M", "result": "30-50%"}]}
